Earlier results in US11697638B2, “5-methoxy-N,N-dimethyltryptamine crystalline forms” (Small Pharma Ltd, priority 2021, dated 2023).
Where two headings read alike, the source gives them in different places.

Settings: self-report, uncontrolled setting

SMILES: COc1ccc2[nH]cc(CCN(C)C)c2c1 [5-MeO-DMT, 5-methoxy-N,N-dimethyltryptamine]
- participants with psychiatric diagnoses indicating that their symptoms improved following 5-MeO-DMT use (anxiety): 69%
- participants with psychiatric diagnoses indicating that their symptoms improved following 5-MeO-DMT use (depression): 77%
- participants with psychiatric diagnoses indicating that their symptoms improved following 5-MeO-DMT use (post-traumatic stress disorder): 79%
